Test results as given in the NIST ThermoML archive (doi:10.1016/j.jct.2016.02.008).
Numbers after ± are expanded uncertainties.

Legend:
[1] = Crystal; for Normal melting temperature: DTA; for mass density: 298.15 K, 101.33 kPa, measuring the mass and volume of a pellet
[2] = Molar enthalpy of transition or fusion; conditions: Crystal; DSC
[3] = molar heat capacity at constant pressure; conditions: 298.15 K; 101.33 kPa; Crystal; Small sample (50 mg) DSC

## CC(=O)c1cc2ccccc2o1 [2-acetylbenzofuran]
[1]
  Normal melting temperature: 66 ± 0.9 °C
[2]
  Molar enthalpy of transition or fusion: 5.09 ± 0.12 kcal/mol
[3]
  molar heat capacity at constant pressure: 192.1 ± 5.3 J/K/mol

## O=C(O)c1cc2ccccc2s1 [benzo[b]thiophene-2-carboxylic acid]
[1]
  mass density: 1490 ± 120 kg/m3
  Normal melting temperature: 244.6 ± 0.6 °C
[2]
  Molar enthalpy of transition or fusion: 7.5 ± 0.165 kcal/mol
[3]
  molar heat capacity at constant pressure: 179 ± 4.6 J/K/mol

## O=C(O)c1cc2ccccc2o1 [benzofuran-2-carboxylic acid]
[1]
  mass density: 1340 ± 60 kg/m3
  Normal melting temperature: 196.7 ± 0.6 °C
[2]
  Molar enthalpy of transition or fusion: 6.49 ± 0.155 kcal/mol
[3]
  molar heat capacity at constant pressure: 184.8 ± 3.9 J/K/mol

## O=C(O)c1cc2ccccc2[nH]1 [indole-2-carboxylic acid]
[1]
  Normal melting temperature: 210.0 ± 0.8 °C
[2]
  Molar enthalpy of transition or fusion: 5.49 ± 0.153 kcal/mol
[3]
  molar heat capacity at constant pressure: 178.4 ± 5.5 J/K/mol
